According to patent US20090325874A1, “Inhibition of inositol 1,4,5-triphosphate receptor calcium channel/cytochrome c interactions and uses thereof” (priority 2008, published 2009):

Tests used:
[1] = test system: caspase-3 activation in Jurkat cells co-cultured with SW620 cells; assay: Caspase-3 like (DEVDase) activity in Jurkat cells co-cultured with SW620 cells; format: cell-based, human; details: for caspase-3 activation in Jurkat cells: 24 h co-culture with SW620; for Jurkat cell (lymphocyte) apoptosis induced by co-culture with SW620 cells: summary statement, co-culture with Fas ligand-expressing SW620 colon cancer cells
Experimental: (§1) Jurkat T-lymphoma (clone E6-1) and SW620 colon adenocarcinoma cells were purchased and cultured according to the guidelines of American Type Culture Collection (ATCC, Manassas, Va.). SW620 cells grow as adherent monolayers, whereas Jurkat cells grow in suspension. Jurkat cells were co-cultured with SW620 cells by exchanging the culture medium of SW620 cells (80 percent confluent in a 10 cm dish) with 10 ml Jurkat medium containing 1×10^6 Jurkat cells. Co-cultures were incubated for 24 h, after which cell death or caspase activity was determined in Jurkat cells. Pre-loading 1,2-bis(o-aminophenoxy)ethane-N,N,N′,N′-tetraacetic acid (BAPTA) or B-IP3RCYT into Jurkat cells was performed for 30 min at room temperature. Free BAPTA-AM or B-IP3RCYT was removed by media exchange prior to addition to SW620 cells. XestC was similarly pre-incubated with Jurkat cells prior to co-culturing, and remained in the culture medium for the duration of the co-culture experiment.
Caspase activity and cell death were determined specifically in Jurkat cells by removing the medium containing the Jurkat cells into a fresh tube. An additional rinse with culture medium was used to fully recover the Jurkat cells. Adherent SW620 cells remained attached to the culture plate after this rinse as determined by light microscopy. Jurkat cells were pelleted by centrifugation at 1000 g and cell death was determined by propidium iodide staining as described (12). Fluorometric determination of DEVDase (caspase-3 like) activity was performed on lysates prepared from Jurkat cells as described (12, 15).

[2] = test system: Jurkat cells co-cultured with SW620 cells; assay: Jurkat cell death by propidium iodide staining after co-culture with SW620 cells; format: cell-based, human; design: dose or concentration left out as unconfirmed; details: XestC pre-incubation, 24 h co-culture
Experimental: as §1
Caspase activity and cell death were determined specifically in Jurkat cells by removing the medium containing the Jurkat cells into a fresh tube. […] Adherent SW620 cells remained attached to the culture plate after this rinse as determined by light microscopy. Jurkat cells were pelleted by centrifugation at 1000 g and cell death was determined by propidium iodide staining as described (12). […]

SMILES	caspase-3 activation in Jurkat cells ([1]; 100 and 500 nM BAPTA-AM pre-loaded 30 min, p<0.05 vs no pre-treatment)	Jurkat cell (lymphocyte) apoptosis induced by co-culture with SW620 cells [1]	Jurkat cell death induced by co-culture with SW620 cells [2]	caspase-3 activation in Jurkat cells ([1]; XestC 1 to 20 micromolar, pre-incubated and kept in medium)
CC(=O)OCOC(=O)CN(CC(=O)OCOC(C)=O)c1ccccc1OCCOc1ccccc1N(CC(=O)OCOC(C)=O)CC(=O)OCOC(C)=O [BAPTA-AM, aminomethoxy ester form of BAPTA (1,2-bis(o-aminophenoxy)ethane-N,N,N′,N′-tetraacetic acid]	Significant attenuation of caspase-3 activation			
O=C(O)CN(CC(=O)O)c1ccccc1OCCOc1ccccc1N(CC(=O)O)CC(=O)O [BAPTA, 1,2-bis(o-aminophenoxy)ethane-N,N,N′,N′-tetraacetic acid]		dose-dependently inhibited Jurkat cell apoptosis		
C1CCC[C@H]2CCCN3CC[C@@H](CCCCCC[C@@H]4CCCN5CC[C@@H](CC1)O[C@@H]45)O[C@@H]23 [XestC, Xestospongin C]		dose-dependently inhibited Jurkat cell apoptosis	potently blocked Jurkat cell death	inhibited caspase-3 activation
